The text below walks through data of patent publication US20060269594A1, “Liposomal antineoplastic drugs and uses thereof” (Inex Pharmaceuticals Corporation, priority 2000, published 2006).

Like-named read-outs stand apart in the source and are kept apart here.

For data set [1] the following is noted: cited from earlier work.
A short description of data set [2]: Pharmacokinetic and in vivo leakage studies. To be noted: plasma, ICR mice; for AUC / Cmax / clearance: mouse, iv. How it is done:
5. Pharmacokinetic and in vivo leakage studies. […] Two different drug-to-lipid ratios, i.e., 0.10 (w/w) and 0.02 (w/w), were used to examine the influence of drug-to-lipid ratio and lipid dose on drug leakage and PK behavior. Encapsulated topotecan was administered at 1 mg/kg (10 or 50 mg/kg lipid) and 5 mg/kg topotecan (50 mg/kg lipid). […] Total topotecan in blood was determined by a fluorescence assay preceded by precipitation of plasma proteins. Topotecan was quantified by spectrofluorimetry at an excitation (2.5 nm slit width) and emission wavelength (2.5 nm slit width) of 380 and 518 nm, respectively. Lipid levels in plasma were determined by liquid scintillation counting of the [^3H]-CHE label.

Data set [3] is described as follows: Myelosuppression and neutropenia studies (blood CBC and differential). The note with it: 10 mg/kg i.v., day 3. In kind it is in vivo, ICR mice.
Experimental: Myelosuppression and neutropenia studies. […] Empty vesicles were administered as a control. CBC and differential analysis was performed at Central Labs for Veterinarians (Langley, BC) to quantify cellular levels, ratios and morphology.
Data set [4] deals with LX-1 human lung carcinoma. The experiment in a line: LX-1 human lung carcinoma xenograft (s.c.), efficacy and toxicity. In kind it is in vivo, nude mice. To be noted: LX-1, single dose; free at evaluated doses <30 mg/kg. The text has this:
In the above formula, MTD is the maximum tolerated dose, defined as that dose that causes a mean weight loss of 20% in a group of animals; and MED is the minimal effective dose, defined as the dose that produces an optimal % T/C value of ≦40 in the solid tumor models or an % ILS of 50±10% in the survival models.

Data set [5] deals with MX-1 human breast carcinoma. The experiment in a line: MX-1 human breast carcinoma xenograft (s.c.), efficacy and toxicity. In kind it is in vivo, nude mice.
Experimental: Tumor Models. […] Human MX-1 and LX-1 cell lines were obtained from the DCTD Tumor Repository in Frederick, Md. These cell lines were received as tumor fragments and were propagated in NCr nude mice by serial transplantation of 3×3 mm fragments. Experiments were not initiated until the cell lines had been through 3 passages in nude mice and the tumor lines were restarted when the passage number reached 10.
Efficacy Studies. […] For the MX-1 and LX-1 tumor models, tumor volume was determined by repeated perpendicular measurements of tumor dimensions and using the formula: Volume (mm^3)=(L×W^2)/2
Setting [6] is: MX-1 s.c., single i.v. dose 5 mg/kg.

Consider `CC[C@@]1(O)C(=O)OCc2c1cc1n(c2=O)Cc2cc3c(CN(C)C)c(O)ccc3nc2-1` [Free, 9-dimethylaminomethyl-10-hydroxy-camptothecin], for which the LD10 is listed as around 4.7 mg/kg/dose in data set [1] (qdx5 schedule, converted); 75 mg/M^2 in data set [1] (single intravenous infusion in mice (Hycamtin product monograph)); around 25 mg/kg in data set [1] (single intravenous infusion in mice, converted). Besides, the AUC (commonly the area under the concentration-time curve, a measure of exposure) in data set [2] (1 mg/kg i.v.) came to 1970 ng·h/mL; in data set [2] (5 mg/kg i.v.) it was 2770 ng·h/mL. For the same compound, the highest concentration (Cmax) (as a rule, the maximum level reached in the sampled fluid or tissue) in data set [2] (1 mg/kg i.v.) stood at 750 ng/mL; in data set [2] (5 mg/kg i.v.) it was 2170 ng/mL. In addition, the values for the clearance in data set [2] (1 mg/kg i.v.) and in data set [2] (5 mg/kg i.v.) were 0.232 mL/min and 0.827 mL/min, respectively. Further, the α1/2 is 0.14 h in data set [2] (1 mg/kg i.v.) and 0.26 h in data set [2] (5 mg/kg i.v.). Besides, the “differences in neutrophil, WBC and lymphocyte parameters” value in data set [3] is “No significant differences”. The “anti-tumor activity in initial single dose studies” value in data set [4] was “inactive”. Also, the anti-tumor activity result in data set [5] (MX-1, q7dx3, 5 or 10 mg/kg/dose) is reported as “little activity”. The “% T/C (optimal, following final treatment)” value came to 61% in data set [5] (MX-1 s.c., q7dx3, 10 mg/kg/dose i.v.); 78% in data set [5] (setting [6]); 24% in data set [5] (MX-1 s.c., single i.v. dose 40 mg/kg). Also, the “T − C (tumor growth delay to 500 mm^3)” value in data set [5] (setting [6]) amounted to 0.2 days.
